The values that follow come from patent US8779142B2, “Azabicyclo compound and salt thereof” (Taiho Pharmaceutical Co., Ltd., priority 2009, dated 2014).

In assay [1] the target is human HSP90 alpha protein (HSP90 N-terminal protein, amino acids 2-236) (Homo sapiens (Human), UniProt P07900). Description: Measurement of HSP90-binding activity (AlphaScreen competitive assay, biotin-labeled geldanamycin). The conditions noted are these: read-out: HSP-binding activity IC50.
In assay [2] the test system is SK-BR-3 cells. Description: Measurement of cell growth inhibition (crystal violet staining method). The assay is classed as cell-based.
[3] abbreviates: concentration inhibiting binding of biotin-labeled geldanamycin (40 nM) to purified HSP90 to 50% of control.
Setting [4] is: Homo sapiens, breast cancer SK-BR-3 cells, 72 hr culture with test substance.

Where two headings read alike, the source gives them in different places.

As to `CC(C)c1nn(-c2ccc(C(N)=O)cc2N)c2nccc(-n3cnc(-c4cnn(C)c4)c3)c12` [Example 107, 3-Amino-4-{3-isopropyl-4-(4-(1-methyl-1H-pyrazol-4-yl)-1H-imidazol-1-yl)-1H-pyrazolo[3,4-b]pyridin-1-yl}benzamide], the results for the IC50 in assay [1] (setting [3]) and in assay [2] (setting [4]) were 200 nM and 900 nM, respectively.
For `CC(C)c1nn(-c2ccc(C(N)=O)c(Nc3ccc(N4CCOCC4)cc3)c2)c2nccc(-c3cnc4ccccc4c3)c12` [Example 33, 4-{3-Isopropyl-4-(quinolin-3-yl)-1H-pyrazolo[3,4-b]pyridin-1-yl}-2-(4-morpholinophenylamino)benzamide] the same measures were 1140 nM and 70 nM.
For `CC(C)c1nn(-c2ccc(C(N)=O)c(NC(C)(C)C)c2)c2nccc(-n3cnc(-c4cnn(C)c4)c3)c12` [Example 112, 2-(Tert-butylamino)-4-{3-isopropyl-4-(4-(1-methyl-1H-pyrazol-4-yl)-1H-imidazol-1-yl)-1H-pyrazolo[3,4-b]pyridin-1-yl}benzamide] the same measures were 250 nM and 40 nM.
The like results for `COc1cc(C(N)=O)ccc1-n1nc(C(C)C)c2c(-n3cnc(-c4cccnc4)c3)ccnc21` [Example 142, 4-{3-Isopropyl-4-(4-(pyridin-3-yl)-1H-imidazol-1-yl)-1H-pyrazolo[3,4-b]pyridin-1-yl}-3-methoxybenzamide] were, in that order, 120 nM and 220 nM.
For the molecule `CCNc1cc(-n2nc(C(C)C)c3c(-n4cnc(-c5cnn(C)c5)c4)ccnc32)ccc1C(N)=O` [Example 109, 2-(Ethylamino)-4-{3-isopropyl-4-(4-(1-methyl-1H-pyrazol-4-yl)-1H-imidazol-1-yl)-1H-pyrazolo[3,4-b]pyridin-1-yl}benzamide], the IC50 turned out to be 180 nM in assay [1] (setting [3]) and 80 nM in assay [2] (setting [4]).
As for “2-(4-Hydroxycyclohexylamino)-4-{3-methyl-4-(4-(pyridin-3-yl)-1H-imidazol-1-yl)-1H-pyrazolo[2,3-b]pyridin-1-yl}benzamide [Example 98]”, the half-maximal inhibitory concentration (IC50) worked out at 70 nM in assay [1] and 10 nM in assay [2].
For `CCNc1cc(-n2nc(C(F)(F)F)c3c(-n4cnc(-c5cnn(C)c5)c4)ccnc32)ccc1C(N)=O` [Example 161, 2-(Ethylamino)-4-{4-(4-(1-methyl-1H-pyrazol-4-yl)-1H-imidazol-1-yl)-3-(trifluoromethyl)-1H-pyrazolo[3,4-b]pyridin-1-yl}benzamide], the 50% inhibitory concentration (IC50) in assay [1] (setting [3]) came to 170 nM; in assay [2] (setting [4]), 60 nM.
For `CCNc1cc(C(N)=O)ccc1-n1nc(C(F)(F)F)c2c(-n3cnc(-c4cccnc4)c3)ccnc21` [Example 180, 3-(Ethylamino)-4-{4-(4-(pyridin-3-yl)-1H-imidazol-1-yl)-3-(trifluoromethyl)-1H-pyrazolo[3,4-b]pyridin-1-yl}benzamide] the same measures were 190 nM and 140 nM.
For `C=Cc1cc(C(N)=O)ccc1-n1nc(C(C)C)c2c(-n3cnc(-c4cnn(C)c4)c3)ccnc21` [Example 101, 4-{3-Isopropyl-4-(4-(1-methyl-1H-pyrazol-4-yl)-1H-imidazol-1-yl)-1H-pyrazolo[3,4-b]pyridin-1-yl}-3-vinylbenzamide] the same measures were 220 nM and 290 nM.
Turning to `CC(C)c1nn(-c2ccc(C(N)=O)c(NCCN3CCCC3)c2)c2nccc(-c3cnc4ccccc4c3)c12` [Example 22, 4-{3-Isopropyl-4-(quinolin-3-yl)-1H-pyrazolo[3,4-b]pyridin-1-yl}-2-{2-(pyrrolidin-1-yl)ethylamino}benzamide], the values for the half-maximal inhibitory concentration (IC50) in assay [1] (setting [3]) and in assay [2] (setting [4]) were 180 nM and 160 nM, respectively.
In the case of `CC(C)c1nn(-c2ccc(C(N)=O)c(N[C@H]3CC[C@H](O)CC3)c2)c2nccc(-n3cnc(-c4ccccc4)c3)c12` [Example 37, 2-(Trans-4-hydroxycyclohexylamino)-4-{3-isopropyl-4-(4-phenyl-1H-imidazol-1-yl)-1H-pyrazolo[3,4-b]pyridin-1-yl}benzamide], the half-maximal inhibitory concentration (IC50) in assay [1] (setting [3]) came to 250 nM; in assay [2] (setting [4]), 100 nM.
The like results for `CCNc1cc(C(N)=O)ccc1-n1nc(C(C)C)c2c(-n3cnc(-c4cnn(C)c4)c3)ccnc21` [Example 121, 3-(Ethylamino)-4-{3-isopropyl-4-(4-(1-methyl-1H-pyrazol-4-yl)-1H-imidazol-1-yl)-1H-pyrazolo[3,4-b]pyridin-1-yl}benzamide] were, in that order, 180 nM and 160 nM.
The like results for `CC(C)c1nn(-c2ccc(C(N)=O)c(NC3CCC(O)CC3)c2)c2nccc(-n3cnc(-c4ccoc4)c3)c12` (stereo not drawn) [Example 90, 4-{4-(4-(Furan-3-yl)-1H-imidazol-1-yl)-3-isopropyl-1H-pyrazolo[3,4-b]pyridin-1-yl}-2-(4-hydroxycyclohexylamino)benzamide] were, in that order, 230 nM and 40 nM.
For `CC(C)c1nn(-c2ccc(C(N)=O)c(NC3CCC(O)CC3)c2)c2nccc(-n3cnc(-c4cn[nH]c4)c3)c12` (stereo not drawn) [Example 95, 4-{4-(4-(1H-Pyrazol-4-yl)-1H-imidazol-1-yl)-3-isopropyl-1H-pyrazolo[3,4-b]pyridin-1-yl}-2-(4-hydroxycyclohexylamino)benzamide] the same measures were 60 nM and 20 nM.
On to `Cc1cn(-c2ccc(C(N)=O)c(N[C@H]3CC[C@H](N)CC3)c2)c2nccc(-c3cnc4ccccc4c3)c12` [Example 61, 2-(Trans-4-aminocyclohexylamino)-4-{3-methyl-4-(quinolin-3-yl)-1H-pyrrolo[2,3-b]pyridin-1-yl}benzamide], for which half-maximal inhibition in assay [2] (setting [4]) (IC50) was put at 360 nM.
On the same count and under the same terms, in the case of `COc1cc2ccn(-c3ccc(C#N)c(Nc4ccccc4)c3)c2cc1OC` [Comparative Example 3, reference compound] it was above 10000 nM; in that of `CC(C)c1nn(-c2ccc(C(N)=O)c(N[C@H]3CC[C@H](O)CC3)c2)c2nccc(-c3cnc4ccccc4c3)c12` [Example 6, 2-(Trans-4-hydroxycyclohexylamino)-4-{3-isopropyl-4-(quinolin-3-yl)-1H-pyrazolo[3,4-b]pyridin-1-yl}benzamide], 30 nM; in that of `COc1ccc(-c2ccnc3c2c(C(C)C)nn3-c2ccc(C(N)=O)c(N[C@H]3CC[C@H](O)CC3)c2)cn1` [Example 18, 2-(Trans-4-hydroxycyclohexylamino)-4-{3-isopropyl-4-(6-methoxypyridin-3-yl)-1H-pyrazolo[3,4-b]pyridin-1-yl}benzamide], 590 nM.
Regarding `COc1cc(C(N)=O)ccc1-n1nc(C(C)C)c2c(-n3cnc(-c4cnn(C)c4)c3)ccnc21` [Example 128, 4-{3-Isopropyl-4-(4-(1-methyl-1H-pyrazol-4-yl)-1H-imidazol-1-yl)-1H-pyrazolo[3,4-b]pyridin-1-yl}-3-methoxybenzamide], the half-inhibitory concentration (IC50) in assay [2] (setting [4]) came to 150 nM.
`COc1cc2ccn(-c3ccc(C(N)=O)c(Nc4ccccc4)c3)c2cc1OC` [Comparative Example 4, reference compound] came in with an IC50 in assay [2] (Homo sapiens, SK-BR-3, 72 h) above 10000 nM.
On to `COc1ccc2c(c1)cc(C)n2-c1ccc(C(N)=O)c(Nc2ccccc2)c1` [Comparative Example 5, reference compound], for which the half-inhibitory concentration (IC50) in assay [2] (Homo sapiens, SK-BR-3, 72 h) was above 10000 nM.
In assay [2] (setting [4]), `Cc1cn(-c2ccc(C(N)=O)c(S[C@H]3CC[C@H](O)CC3)c2)c2nccc(-c3cnc4ccccc4c3)c12` [Example 67, 2-(Trans-4-hydroxycyclohexylthio)-4-{3-methyl-4-(quinolin-3-yl)-1H-pyrrolo[2,3-b]pyridin-1-yl}benzamide] came in with a 50% inhibitory concentration (IC50) of 510 nM.
